Experimental findings from patent US20240140953A1, “INHIBITORS OF MENIN-MLL INTERACTION” (BIOMEA FUSION, INC., priority 2018, published 2024) are described below.

“Also recorded” adds a separate entry of the source. Like-named read-outs stand apart in the source and are kept apart here.

For one assay, the system named is HL-60. The experiment in a line: Proliferation study, CellTiterGlo, 4 days (Example 102), HL-60. Type of assay: cell-based. Particulars: HL-60, 4 days treatment; for HL-60 % max: maximal inhibition; for IC50: Homo sapiens, 96 h, CellTiterGlo. The text has this: (§1) The objective of the study was to evaluate the ability of representative compounds of the present invention, inhibitors of Menin/MLL interaction to inhibit cell proliferation. The proliferation inhibitory effect was investigated in two human MLL-leukemia cells selected on the bases of MLL fusion protein and listed in Table 102. HL-60 cell line was used as negative control.
(§2) ATP is present in all metabolically active cells and is considered as a marker for cell viability and proliferation. The metabolic cell activity was determined using the CellTiter-Glo kit from Promega, an ATP monitoring system based on the production of luminescence by the reaction of ATP with added UltraGlo® recombinant luciferase (Kawano et al., 2016), according to the supplier's experimental recommendations.
(§3) The described assay evaluates the ability of 4 representative compounds to inhibit the cell proliferation in the human MLL-leukemia cells plus a negative control cell line.
(§4) The assay provides potency values (IC50) for each test compound at a single time point Day 4 (T4).
(§5) Seven concentrations of the compounds (2.00E-05-6.67E-06-2.22E-06-7.41E-07-2.47E-07-8.23E-08-2.74E-08M), were assessed in duplicate in an individual test occasion in all the cell lines. MI-503 (Borkin et al., 2015) was used as reference compound and was tested at the same concentrations as the NCEs. 100% of proliferation is represented by the untreated cells (0.2% DMSO). The cell growth was monitored up to 4 days in culture.
(§6) MV4-11, MOLM-13 and HL-60 cells (see Table 2) were maintained in RPMI-1640 medium (Invitrogen, Cat. n. 618700, Batch n. 1965930) supplemented with 10% of Heat Inactivated FBS (Invitrogen, Cat n. 10500, Batch n. 08Q8078K) and 1% Pen-Strep (Invitrogen, Cat. N. 15140, Batch n. 1910859) and cultured at 37° C. in a humidified incubator with 5% CO2. All the cell lines grow in suspension and the cell density was maintained in a range of 2×10^5-1×10^6 viable cells/ml. Cells were pelleted at 130 g×5 min and conditioned medium was used to dilute the cell suspension.
(§7) Test items were dissolved in glass vials at 10 mM in DMSO with purity ≥99.9% (Sigma, D8418, batch n. SHBH4245V) and stored at −20° C. in 1.5 mL Eppendorf tubes.
(§8) Serial dilutions 1 to 3 in DMSO 100% were prepared starting from a 10 mM stock solutions to generate 7 points concentration response curve (CRC).
(§9) For each plate to test, one 0.4 μL copy plate and four 0.3 μL copy plates were then stamped into 96-well plates not treated for cell adhesion (Sarstedt—cat.no. 82.1581.001) by acoustic liquid Handling, Echo, at a concentration which was 500 fold the final assay concentration. Stamped plates were stored at −20° C. The final concentrations for the reference compound, MI-503, and the test items were: 2.00E-05, 6.67E-06, 2.22E-06, 7.41E-07, 2.47E-07, 8.23E-08 and 2.74E-08 M.
(§10) Cells were plated in 96-well flat bottom microtiter plates at cell density of 15,000 cells/ml for HL-60, 1000 cells/ml for MOLM-13 and 10,000 cell/ml for MV4-11. Cells were treated with 0.2% DMSO (Sigma, D8418, batch n. SHBH4245V) or serial dilutions of compounds (0.027 μM-20 μM) in DMSO (0.2% final concentration). Cells were incubated in a 5% CO2 incubator at 37° C. for 4 days. A CellTiterGlo viability assay (Promega) was employed. Luminescence was read by using VictorV (Perkin Elmer) multilabel plate reader using the standard protocol for luminescence in 96 well plate. The experiment was performed in duplicate.
(§11) Data were expressed as % of inhibition compared to the 0.2% DMSO negative control, and was calculated as follows: […]
(§12) CRCs were analysed by GraphPad and IC50 values were calculated by non-linear regression using 4 parameter-logistic equation. IC50 (μM) values were reported in the final data table. The curve fittings were performed leaving free all the parameters. Any constrain were reported in the results table.
On the technique in general: Cellular ATP, detected with luciferase, serves as a proxy for viable cell number.

A further assay deals with MOLM-13 (MLL-AF9). The experiment in a line: Proliferation study, CellTiterGlo, 4 days (Example 102), MOLM-13. The assay is classed as cell-based, human. The following applies: MOLM-13, 4 days treatment; for IC50: Homo sapiens, 96 h, CellTiterGlo; for MOLM-13 (MLL-AF9) % max: maximal inhibition.
Description: as §1, §2, §3, §4, §5, §6, §7, §8, §9, §10, §11, §12

[1] abbreviates: read-out: HL-60 pIC50 (converted).
Where [2] appears, read: read-out: MOLM-13 (MLL-AF9) IC50.
Setting [3] is: read-out: MOLM-13 (MLL-AF9) pIC50 (converted).

In the assay on HL-60, `O=C(Nc1ccc(-c2cc3c(N4CCOCC4)ncnc3[nH]2)cc1)Nc1cc(-c2cccnc2)n[nH]1` [Compound 9, 1-{4-[4-(morpholin-4-yl)-7H-pyrrolo[2,3-d]pyrimidin-6-yl]phenyl}-3-[3-(pyridin-3-yl)-1H-pyrazol-5-yl]urea] gave an HL-60 % max of 69%. Besides, the IC50 was 320 nM with HL-60 (read-out: HL-60 IC50), 316 nM in the assay on HL-60 (setting [1]), 320 nM in the assay with MOLM-13 (MLL-AF9) (setting [2]) and 324 nM in the assay on MOLM-13 (MLL-AF9) (setting [3]). The “MOLM-13 (MLL-AF9) % max” value with MOLM-13 (MLL-AF9) was determined as 94%.

With `Cn1nc(-c2cccnc2)cc1CC(=O)Nc1ccc(-c2cc3c(N4CCOCC4)ncnc3[nH]2)cc1` [Compound 11, 2-[1-methyl-3-(pyridin-3-yl)-1H-pyrazol-5-yl]-N-{4-[4-(morpholin-4-yl)-7H-pyrrolo[2,3-d]pyrimidin-6-yl]phenyl}acetamide], the HL-60 % max in the assay with HL-60 turned out to be 102%. For the same compound, the IC50 was 510 nM in the assay on HL-60 (read-out: HL-60 IC50), 513 nM in the assay with HL-60 (setting [1]), 260 nM with MOLM-13 (MLL-AF9) (setting [2]) and 257 nM with MOLM-13 (MLL-AF9) (setting [3]). The “MOLM-13 (MLL-AF9) % max” value with MOLM-13 (MLL-AF9) is 95%.

With `O=C(Cc1cc(-c2cccnc2)n[nH]1)Nc1ccc(-c2nc3c(N4CCOCC4)ncnc3[nH]2)cc1` [Compound 12, N-{4-[6-(morpholin-4-yl)-9H-purin-8-yl]phenyl}-2-[3-(pyridin-3-yl)-1H-pyrazol-5-yl]acetamide], the “inhibition of cell viability (in words)” value in the assay on HL-60 (up to 20 μM) is “not active up to the highest concentration tested; also recorded: completely inactive up to the highest concentration tested”; in the assay with MOLM-13 (MLL-AF9) (up to 20 μM), “slightly active”. The IC50 in the assay on HL-60 (read-out: HL-60 IC50) was above 20000 nM; in the assay with HL-60 (setting [1]), above 20000 nM; in the assay with MOLM-13 (MLL-AF9) (setting [2]) it was around 710 nM; in the assay on MOLM-13 (MLL-AF9) (setting [3]), around 708 nM.
